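Test compounds were applied to cells in 96-well plates for 48 hours at 5 doses. At the GI50, growth is halved.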 Active and inactive are the calls of the source. No stated cut-off is given here; in the data, active = GI50 up to about 1.1 µM and inactive = higher.
Columns and labels:
Assay in all cases: inhibition of tumour cell growth, NCI panel, 48 h
[1] = test system: CAKI-1
[2] = test system: MDA-MB-231
[3] = test system: SF-268
[4] = test system: SF-539
[5] = test system: SR
[6] = test system: OVCAR-4
[7] = test system: MDA-MB-435
[8] = test system: SNB-19
[9] = test system: SW-620
[10] = test system: NCI/ADR-RES
[11] = test system: OVCAR-3
[12] = test system: PC-3
[13] = test system: RXF 393
[14] = test system: A498
[15] = test system: M14
[16] = test system: HCT-15
[17] = test system: HOP-62
[18] = test system: CCRF-CEM
[19] = test system: SK-MEL-5
[20] = test system: SN12C

Row | SMILES | GI50 [1] | GI50 [2] | GI50 [3] | GI50 [4] | GI50 [5] | GI50 [6] | GI50 [7] | GI50 [8] | GI50 [9] | GI50 [10] | GI50 [11] | GI50 [12] | GI50 [13] | GI50 [14] | GI50 [15] | GI50 [16] | GI50 [17] | GI50 [18] | GI50 [19] | GI50 [20]
1 | COc1cc(/C=C2\C[C@H]3[C@@H]4CC=C5C[C@@H](N6CCCC6)CC[C@]5(C)[C@H]4CC[C@]3(C)[C@H]2O)cc(OC)c1OC | 15.5 µM (inactive) | 17.5 µM (inactive) | 3.28 µM (inactive) | 16.3 µM (inactive) | 2.63 µM (inactive) | 13.8 µM (inactive) | 4.45 µM (inactive) | 18.8 µM (inactive) | 8.04 µM (inactive) | 15.8 µM (inactive) | 15.5 µM (inactive) | 13.4 µM (inactive) | 7.57 µM (inactive) | 16.6 µM (inactive) | 2.2 µM (inactive) | 11.7 µM | 16.1 µM (inactive) | 3.72 µM (inactive) | 14.5 µM (inactive) | 13.2 µM (inactive)
2 | CCOC(=O)c1c2ccccc2n2c(N)c(C(N)=O)nnc12 | 32.8 µM (inactive) | 18.7 µM (inactive) | 16 µM (inactive) | 16.2 µM (inactive) | > 100 µM (inactive) | > 100 µM (inactive) | > 100 µM (inactive) | 19.3 µM (inactive) | > 100 µM (inactive) | 35.3 µM (inactive) | > 100 µM (inactive) | 60 µM (inactive) | 16.1 µM (inactive) | 21 µM (inactive) | > 100 µM (inactive) | 78.9 µM | 17.3 µM (inactive) | > 100 µM (inactive) | 74.3 µM (inactive) | > 100 µM (inactive)
3 | COc1cc(CCNC2=CC(=O)c3nc[nH]c3C2=O)ccc1O | 48.3 µM (inactive) | 30.9 µM (inactive) | 38.9 µM (inactive) | 34.5 µM (inactive) | 30.7 µM (inactive) | 15.4 µM (inactive) | 17.6 µM (inactive) | 18.2 µM (inactive) | 23.8 µM (inactive) | > 100 µM (inactive) | 3.16 µM (inactive) | 26.4 µM (inactive) | 43.2 µM (inactive) | 34.4 µM (inactive) | 17.5 µM (inactive) | 33 µM | 40.1 µM (inactive) | 33.3 µM (inactive) | 14.4 µM (inactive) | 19.1 µM (inactive)
4 | COC(=O)CCN1CCN(CCO)CC1C (stereo not given) | > 10 µM (inactive) | > 10 µM (inactive) | > 10 µM (inactive) | > 10 µM (inactive) | > 10 µM (inactive) | > 10 µM (inactive) | > 10 µM (inactive) | > 10 µM (inactive) | > 10 µM (inactive) | > 10 µM (inactive) | > 10 µM (inactive) | > 10 µM (inactive) | > 10 µM (inactive) | > 10 µM (inactive) | > 10 µM (inactive) | > 10 µM | > 10 µM (inactive) | > 10 µM (inactive) | > 10 µM (inactive) | > 10 µM (inactive)
5 | CC1=Nc2c(O)nc(S)nc2NC(c2c(Cl)cccc2Cl)C1 (stereo not given) | 5.51 µM (inactive) | 0.519 µM (active) | 1.57 µM (inactive) | 1.75 µM (inactive) | 0.372 µM (active) | 2.74 µM (inactive) | 1.49 µM (inactive) | 2.99 µM (inactive) | 0.971 µM (active) | 0.193 µM (active) | 1.58 µM (inactive) | 1.17 µM (inactive) | 5.26 µM (inactive) | 1.67 µM (inactive) | 2.32 µM (inactive) | 3.05 µM | 6.84 µM (inactive) | 0.275 µM (active) | 3.58 µM (inactive) | 1.42 µM (inactive)
6 | CCOP(=O)(OCC)C(c1ccccc1)N(C(=O)NC(F)(F)F)c1ccc(C)cc1 (stereo not given) | > 100 µM (inactive) | > 100 µM (inactive) | > 100 µM (inactive) | > 100 µM (inactive) | > 100 µM (inactive) | > 100 µM (inactive) | > 100 µM (inactive) | > 100 µM (inactive) | > 100 µM (inactive) | > 100 µM (inactive) | > 100 µM (inactive) | > 100 µM (inactive) | > 100 µM (inactive) | > 100 µM (inactive) | > 100 µM (inactive) | > 100 µM | > 100 µM (inactive) | > 100 µM (inactive) | > 100 µM (inactive) | > 100 µM (inactive)
7 | COc1ccc(/C=C/C(=O)NCC(NC(=O)/C=C/c2ccc(OC)c(OC)c2)C(=O)O)cc1OC (stereo not given) | > 100 µM (inactive) | > 100 µM (inactive) | > 100 µM (inactive) | > 100 µM (inactive) | > 100 µM (inactive) | > 100 µM (inactive) | > 100 µM (inactive) | > 100 µM (inactive) | > 100 µM (inactive) | 0.0169 µM (active) | > 100 µM (inactive) | > 100 µM (inactive) | > 100 µM (inactive) | > 100 µM (inactive) | > 100 µM (inactive) | < 0.01 µM | > 100 µM (inactive) | > 100 µM (inactive) | > 100 µM (inactive) | > 100 µM (inactive)
8 | Cc1c2cccc-2ccc2c1[nH]c1ccccc12 | 6.31 µM (inactive) | 1.76 µM (inactive) | 2.04 µM (inactive) | 1.81 µM (inactive) | 3.05 µM (inactive) | 2.23 µM (inactive) | 2.27 µM (inactive) | 2.7 µM (inactive) | 2.36 µM (inactive) | 3.34 µM (inactive) | 2.47 µM (inactive) | 1.76 µM (inactive) | 3.21 µM (inactive) | 13.6 µM (inactive) | 1.73 µM (inactive) | 2.58 µM | 3.49 µM (inactive) | 1.27 µM (inactive) | 1.79 µM (inactive) | 2.34 µM (inactive)
9 | NC(=S)N/N=C/c1ncccc1N [TRIAPINE] | 0.521 µM (active) | 5.28 µM (inactive) | 0.925 µM (active) | 0.239 µM (active) | 0.403 µM (active) | 7.48 µM (inactive) | 1.71 µM (inactive) | 9.89 µM (inactive) | 3.72 µM (inactive) | 2.04 µM (inactive) | 2.25 µM (inactive) | 1.57 µM (inactive) | 1.07 µM (active) | 0.615 µM (active) | 0.583 µM (active) | 1.97 µM | 1.19 µM (inactive) | 0.466 µM (active) | 0.968 µM (active) | 1.41 µM (inactive)
